Structures are written as SMILES.

Broadly, the IC50 is the concentration that inhibits the measured activity by half. A high value points to weaker potency.

One test deals with T1, human CB2 receptor (Homo sapiens, UniProt P34972).
T1 construct: host or cells: CHO-K1 (Chinese hamster ovary) cells, stably transfected; membranes prepared in house
In words: CB2 radioligand competitive binding assay ([3H]CP 55,940 displacement). The following applies: for Selectivity CB2: fold difference in binding between CB1 and CB2, shown in column of receptor with higher affinity, 1.00 in both = about the same affinity. As for the experimental part: Compounds of the present disclosure were tested for CB1 receptor binding affinity and for CB2 receptor binding affinity. As used herein, “binding affinity” is represented by the IC50 value, which was experimentally determined as described herein. The lower the IC50 value the higher the binding affinity.
The membranes were prepared from CHO-K1 (Chinese hamster ovary) cells stably transfected with the human CB2 receptor (Cat. #ES-111-C; Perkin Elmer, Boston, MA). The cells were grown adherently and maintained in Ham's F12 medium containing 10% fetal bovine serum (FBS), penicillin, streptomycin and geneticin (G418) at 37° C. in a humid atmosphere of 5% CO2 following the manufacturer's instructions.
For membrane preparation the cells were washed with PBS and scraped off the plates in cold homogenization buffer (25 mM HEPES (pH 7.4), 2 mM EDTA) containing protease inhibitor cocktail (Sigma Cat. #P8340). The cell suspension was homogenized with a Pro-PK-01200D Polytron Homogenizer (Pro Scientific) and then centrifuged for 30 min at 120,000×g. The supernatant was discarded and the pellet was re-suspended in the homogenization buffer and stored at −80° C. until the time of use.
In this experiment, 3H radiolabeled CP 55,940, i.e. [3H]CP 55,940 (Perkin Elmer, Boston, MA), was used as a radioligand for the CB2 receptor to determine the binding affinity of compounds for the CB2 receptor (Scheme 3; above).
The competition binding experiments (single dose and dose-response) were performed by incubating 0.6 nM of [3H]CP55,940 (specific activity 101 Ci/mmol, Perkin Elmer) and different concentrations of compounds disclosed herein with membranes prepared as above from CHO-K1 cells expressing human CB2 receptor (1 μg of protein/well), 50 mM Tris-HCl (pH 7.4), 5 mM MgCl2, 1 mM CaCl2, and 2 mg/mL BSA.
For the dose-response experiments the test compounds were sequentially diluted to provide the desired concentration range for the IC50 determination. In each case the compounds were pre-incubated with the membrane for 20 min, before adding the radioligand.
After incubation with the radioligand for 60 min at 37° C., the incubation was terminated by rapid filtration of assay mixture through MultiScreen®HTS^+ 96-well filter plates (Millipore, Cat. #MSFCNXB), pre-soaked for 60 min with 50 mM Tris-HCl (pH 7.4) containing 0.33% polyethylenimine (PEI). The nonspecific binding (NSB) was determined in the presence of 10 μM unlabelled CP55,940. After drying the filter plate at 50° C. for at least 60 min, the filter-bound radioactivity was determined by scintillation spectrometry using the 1450 MicroBeta Plate Counter (Perkin Elmer, Boston, MA).

In the next test the target is T2, human CB1 receptor (Homo sapiens, UniProt P21554).
T2 construct: host or cells: CHO-K1 (Chinese hamster ovary) cells, stably transfected; membranes prepared in house
T2 sequence (P21554 whole entry): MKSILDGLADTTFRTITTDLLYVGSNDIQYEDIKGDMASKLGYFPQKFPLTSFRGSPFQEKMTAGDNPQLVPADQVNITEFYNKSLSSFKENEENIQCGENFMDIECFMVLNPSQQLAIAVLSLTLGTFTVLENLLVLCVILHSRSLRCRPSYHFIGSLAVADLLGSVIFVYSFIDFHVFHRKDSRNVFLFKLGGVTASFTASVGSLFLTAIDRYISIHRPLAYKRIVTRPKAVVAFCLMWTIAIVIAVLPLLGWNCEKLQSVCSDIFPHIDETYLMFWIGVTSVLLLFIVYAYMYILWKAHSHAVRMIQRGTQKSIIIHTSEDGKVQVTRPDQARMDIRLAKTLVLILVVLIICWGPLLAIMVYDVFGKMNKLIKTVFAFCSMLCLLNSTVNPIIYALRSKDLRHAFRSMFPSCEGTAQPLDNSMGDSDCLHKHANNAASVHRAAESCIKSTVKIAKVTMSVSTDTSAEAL
In words: CB1 radioligand competitive binding assay ([3H]CP 55,940 displacement).

T1 sequence (P34972 whole entry): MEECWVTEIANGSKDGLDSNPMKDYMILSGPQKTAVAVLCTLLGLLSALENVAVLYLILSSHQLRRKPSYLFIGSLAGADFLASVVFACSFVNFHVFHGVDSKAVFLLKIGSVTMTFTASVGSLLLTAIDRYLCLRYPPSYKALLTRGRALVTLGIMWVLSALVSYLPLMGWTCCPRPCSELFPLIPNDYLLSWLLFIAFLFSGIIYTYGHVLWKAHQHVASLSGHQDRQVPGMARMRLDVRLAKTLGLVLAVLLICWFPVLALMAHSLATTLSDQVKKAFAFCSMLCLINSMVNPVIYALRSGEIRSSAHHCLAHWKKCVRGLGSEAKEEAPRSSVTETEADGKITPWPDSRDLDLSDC

As for `CCCc1c(CN(C)C(=O)OC)c(O)c(C2C=C(C)CCC2)c(O)c1CN(C)C(=O)OC` (stereo not drawn) [59′c, dimethyl ((2,6-dihydroxy-5′-methyl-4-propyl-1′,2′,3′,4′-tetrahydro-[1,1′-biphenyl]-3,5-diyl)bis(methylene))bis(methylcarbamate)], the values for the IC50 on human CB2 receptor and at human CB1 receptor were 100 to 990 nM and 1000 to 4990 nM, respectively. At human CB2 receptor, the “Selectivity CB2” value was 3.25 fold.
For `CCCCCc1cc(O)c(C2C=C(C)CCC2)c(O)c1C(=O)NC1CCCC1` (stereo not drawn) [Compound 7c, N-cyclopentyl-2,6-dihydroxy-5′-methyl-4-pentyl-1′,2′,3′,4′-tetrahydro-[1,1′-biphenyl]-3-carboxamide], at human CB2 receptor, the IC50 was < 100 nM and the “Selectivity CB2” value was determined as 188.10 fold. Besides, at human CB1 receptor, the IC50 was 100 to 990 nM.
Regarding `CCCCCc1cc(O)c(-c2cccc(C)c2)c(O)c1CN(C)C(=O)OC` [Compound 59a, methyl ((2,6-dihydroxy-3′-methyl-4-pentyl-[1,1′-biphenyl]-3-yl)methyl)(methyl)carbamate], on human CB2 receptor, the IC50 was < 100 nM and the “Selectivity CB2” value was 10.91 fold. The compound further came in with an IC50 on human CB1 receptor of 100 to 990 nM.
Regarding `CCCCCc1cc(O)c(C2C=C(C)CCC2)c(O)c1C(=O)NC1CC1` (stereo not drawn) [Compound 6c, N-cyclopropyl-2,6-dihydroxy-5′-methyl-4-pentyl-1′,2′,3′,4′-tetrahydro-[1,1′-biphenyl]-3-carboxamide], the IC50 on human CB2 receptor is < 100 nM; at human CB1 receptor, 1000 to 4990 nM. Also, the “Selectivity CB2” value on human CB2 receptor was 40.14 fold.

The values above are taken from patent US12325709B2, “Cannabinoid derivatives” (CANOPY GROWTH CORPORATION, priority 2019, dated 2025).
